Experimental data: patent US20220218734A1, “COMBINATIONS OF THERAPEUTIC AGENTS FOR TREATING UVEAL MELANOMA” (Universiteit Gent, priority 2019, published 2022)

Key:
[1] = tested on: UM cell lines 92.1 and OMM1; test: ASO-compound combination validation, Excess over Bliss (viability and confluence); assay type: cell-based, human; settings: compound combined with LNA ASO 3 (50 nM), 72 h, viability and confluence read outs; >0 synergism
Method: For the validation experiments, uveal melanoma cell lines 92.1 and OMM1 were seeded in 96 well plates (Corning costar 3596) at a density of 5000 cells/well and were allowed to settle overnight. Subsequently, the cells were transfected using lipofectamine 2000 (Life Technologies) with 50 or 100 nM LNA ASO 3 or LNA NTC and treated with various concentrations of the compounds and with a final DMSO concentration of maximum 0.1%. The compounds were added to the wells using the HP D300e Digital dispenser (Tecan). Control cells were transfected with LNA NTC ASO and treated with DMSO.
Cell viability was also examined using a CellTiter-Glo assay (Promega). Before initiating the assay, the culture plates and reconstituted assay buffer were placed at room temperature for 30 minutes. Next, the culture medium was replaced by 200 μl fresh culture medium—- assay buffer (1:1) mix. To induce complete cell lysis, the plates were shaken for 10 min. 100 μl from each well was subsequently transferred to an opaque 96-well plate (Nunc), which was measured with a GloMax 96 Microplate Luminometer (Promega). The CellTiter-Glo assay was performed on various predefined timepoints.
For real-time analysis, IncuCyte Zoom system and IncuCyte S3 system (Essen BioScience) were used. Cells were seeded and treated as described above. After treatment, the culture plate was incubated in an IncuCyte Zoom system or IncuCyte S3 system at 37° C. in a humidified 5% CO2 incubator. Phase contrast whole well images were captured every 3 h. The IncuCyte ZOOM and IncuCyte S3 software (Essen BioScience) were utilized in real-time to measure % confluence, as a proxy for proliferation.
Bliss independence (BI) scores were calculated to determine ASO-compound interactions. The predictive performance (BI score) is then compared to the observed drug interaction data measured by the Excess over Bliss. Excess over Bliss scores>0 indicate drug synergism, Excess over Bliss scores=0 indicate additive effects and Excess over Bliss scores<0 indicate drug antagonism.

UM cell line OMM1 = test: Seahorse XF Cell Mito Stress Test; assay type: cell-based, human; settings: GDC-0349 0.625 μM, ASO 3 50 nM, combination compared to single ASO 3 treatment
Method: Cells were seeded in T75 culture flasks (Cellstar) at a density of 1 170 000 cells/T75 flask 24 h prior to transfection. The cells were transfected with 50 nM ASO 3 or NTC using lipofectamine 2000, followed by GDC-0349 (0.625 μM) treatment. Four hours later, 25 000 cells were transferred to Seahorse XFp Cell Culture Miniplates (Agilent) and were allowed to settle overnight. Subsequently, oxygen consumption rates were measured in triplicates for each condition using the Seahorse XFp device (Agilent) according to the standard mito stress test procedures in seahorse assay medium supplemented with 14.3 mM glucose, 1 mM pyruvate and 2 mM glutamine (Sigma), and cells were sequentially challenged with 1 μM oligomycin, 1 μM carbonyl cyanide 4-(trifluoromethoxy)-phenylhydrazone (FCCP) and 0.5 μM of a rotenone antimycin A mix (Agilent). Following the assay, protein concentrations were calculated based upon absorbance reading at 280 nm (Biodrop, Isogen Lifescience) for normalization of the results. Spare respiratory capacity was calculated as the difference between maximal and the basal oxygen consumption rate. Relative oxygen consumption rates are relative compared to NTC values.

rpS6 (S235/S236) = test: Western blot for rpS6 and phospho-rpS6; assay type: cell-based, human; settings: 92.1, 24 h, GDC-0349 0.625 μM or 1.25 μM; for phosphorylated rpS6 (S235/S236) levels: ASO 3 50 nM
Method: (§1) Cells were lysed in RIPA lysis buffer (5 mg/ml sodium deoxycholate, 150 mM NaCl, 50 mM Tris-HCl pH 7.5, 0.1% SDS solution, 1% NP-40) supplemented with protease and/or phosphatase inhibitors Protein concentrations were determined with the BCA protein assay (Bio-Rad). In total, 35 μg of protein lysate was loaded onto an SDS-PAGE gel (10% Pre-cast, Bio-Rad), run at 100 V for 1 h and subsequently blotted onto a nitrocellulose membrane. Antibodies against phospho-S6 Ribosomal Protein (Ser235/236) (#2211, 1:1000 dilution), phospho-4E-BP(Thr37/46) (#2855, 1:1000 dilution), S6 Ribosomal Protein (#2317, 1:1000 dilution) and 4E-BP1 (#9644, 1:1000 dilution) were purchased from Cell Signaling Technology. HRP-labeled anti-rabbit (7074 S, Cell Signaling, 1:10 000 dilution) and anti-mouse (7076P2, Cell Signaling, 1:10 000 dilution) antibodies were used as secondary antibodies. Anti-Vinculin antibody (V9131, Sigma-Aldrich, 1:10 000 dilution) was used as loading control. The antibodies were diluted in BSA/TBST (5% BSA in TBS with 0.1% Tween20) and antibody binding with membrane was evaluated using the SuperSignal West Dura Extended Duration Substrate (ThermoFisher Scientific) or SuperSignal West Femto Maximum Sensitivity Substrate (ThermoFisher Scientific). Imaging was performed by means of the Amersham Imager 680 (GE Healthcare). Image J was used for the quantification of the blots.

[2] = tested on: UM cell lines 92.1 and OMM1; test: Differential gene expression analysis by RNA sequencing; assay type: cell-based, human; settings: 92.1 and OMM1, 24 h; ASO 3 50 nM, GDC-0349 0.625 μM
Method: RNA sequencing was performed on quadruplicates of NTC (50 nM), ASO 3 (50 nM), GDC-0349 (0.625 μM) and ASO 3 (50 nM)+GDC-0349 (0.625 μM) treated 92.1 and OMM1 cells. Libraries for RNA sequencing were prepared using the Quant Seq 3′ end library prep […] and quantified on a Qubit 2.0 Fluorometer prior to single-end sequencing with 75 bp read length on a NextSeq 500 sequencer (Illumina). Reads were mapped to the human genome (hg38) and gene expression was quantified using HTSeq. Differentialy expressed genes were identified using DESeq2.

[3] = tested on: UM cell lines 92.1 and OMM1; test: SUnSET puromycin incorporation (translation rate); assay type: cell-based, human; settings: 92.1 and OMM1, 24 h; ASO 3 50 nM, GDC-0349 0.625 μM
Method: Cells were seeded in T75 culture flasks (Cellstar) at a density of 1 170 000 cells/T75 flask 24 h prior to transfection. The cells were transfected with 50 nM LNA ASO 3 or NTC using lipofectamine 2000, followed by GDC-0349 (0.625 μM) or DMSO treatment. 24 h later, cells were washed in 1× phosphate buffer saline (PBS) and subsequently incubated with puromycin containing media (InvivoGen, 10 μg/ml) for 10 min. Puromycin incorporation is a proxy for the mRNA translation rate in vitro and was measured by Western blotting using an anti-puromycin antibody (MABE343, clone 12D10, Merck Millipore, 1:10 000). The antibody was diluted in Milk/TB ST (5% non-fat dry milk in TBS with 0.1% Tween20). Imaging was performed by means of the Amersham Imager 680 (GE Healthcare). An equal protein loading was verified using a ponceau S staining (Sigma Aldrich). Image J was used for the quantification of the blots.

4E-BP1 (T37/T46) = test: Western blot for 4E-BP1 and phospho-4E-BP1; assay type: cell-based, human; settings: 92.1, 24 h, GDC-0349 0.625 μM or 1.25 μM; for phosphorylated 4E-BP1 (T37/T46) levels: ASO 3 50 nM
Method: as §1

SAMMSON = SAMMSON expression / knockdown by RT-qPCR in UM cells; assay type: cell-based, human; settings: in most cell lines
Method: Total RNA was extracted using the miRNeasy kit (Qiagen) according to the manufacturer's instructions, including on-column DNase treatment. The Nanodrop (ThermoFisher Scientific) was used to determine RNA concentrations and cDNA synthesis was performed using the iScript Advanced cDNA synthesis kit (Bio-Rad) using a mix containing 200 ng of RNA, 4 μl of 5× iScript advanced reaction buffer and 1 μl of iScript advanced reverse transcriptase. The qPCR mix contains 2 μl of cDNA (5 ng), 2.5 μl SsoAdvanced Universal SYBR Green Supermix (Bio-Rad), 0.25 μl forward (5 μM, IDT) and reverse primer (5 μM, IDT) and was analyzed on a LC-480 device (Roche). Expression levels were normalized using expression data of at least 2 stable reference genes out of 4 tested reference genes (SDHA^9,10, HPRT1^11,12, UBC^13 and TBP^14,15). Analysis was performed using the qbase+software (https://www.qbaseplus.com).

[4] = tested on: UM patient derived xenografts (PDX) model (MP46); test: Tumor growth in UM patient derived xenograft model; assay type: in vivo, mouse
Method: Since SAMMSON expression is not conserved across species, an UM patient derived xenografts (PDX) model (MP46) was used to investigate the effect on tumor growth in vivo upon SAMMSON knock down. LNA ASO 3 and LNA non targeting control (NTC) were subcutaneous injected at a dose of 10 mg/kg three times in the first week and twice per week in the second and third week.

With CC(=O)Nc1ccc(C(=O)Nc2ccccc2N)cc1 [CI-994, N-(2-aminophenyl)-4-acetamidobenzamide] the “Excess over Bliss score (synergism)” value [1] was “synergistic”.

CCNC(=O)Nc1ccc(-c2nc3c(c(N4CCOC[C@@H]4C)n2)CCN(C2COC2)C3)cc1 [GDC-0349, 3-ethyl-1-(4-{4-[(3S)-3-methylmorpholin-4-yl]-7-(oxetan-3-yl)-5H,6H,7H,8H-pyrido[3,4-d]pyrimidin-2-yl}phenyl)urea] was tested, and the “mitochondrial function / oxidative phosphorylation (oxygen consumption rate)” value (UM cell line OMM1) was “does not alter the mitochondrial function”, the “phosphorylated rpS6 (S235/S236) levels” value (rpS6 (S235/S236)) was “dose dependent reduction” and the “total rpS6 levels” value (rpS6 (S235/S236)) was “remain unaffected”. For the same compound, the “expression pattern of differentially expressed genes compared to NTC ASO” value [2] was “not affecting the expression of many of these genes”, the “Excess over Bliss score (synergism)” value [1] was “synergistic” and the “translation rate (incorporated puromycin signal)” value [3] was “translation inhibition”. The “phosphorylated 4E-BP1 (T37/T46) levels” value (4E-BP1 (T37/T46)) was “dose dependent reduction” and the “total 4E-BP1 levels” value (4E-BP1 (T37/T46)) was “remain unaffected”.

For Cc1cc(C)c(-c2csc(NC(=O)c3ccccc3)n2)c(C)c1 [INH-6, N-[4-(2,4,6-trimethylphenyl)-2-thiazolyl]-benzamide], the “Excess over Bliss score (synergism)” value [1] was “synergistic”.

For COc1cc(NS(C)(=O)=O)ccc1Nc1c2ccccc2nc2ccccc12 [amsacrine, N-{4-[(acridin-9-yl)amino]-3-methoxyphenyl}methanesulfonamide], the “Excess over Bliss score (synergism)” value [1] was “synergistic”.

Oc1c(I)cc(Cl)c2cccnc12 [clioquinol, 5-chloro-7-iodoquinolin-8-ol] was tested, and the “Excess over Bliss score (synergism)” value [1] was “synergistic”.

With Nc1ccccc1NC(=O)c1ccc(CNC(=O)OCc2cccnc2)cc1 [entinostat, (pyridin-3-yl)methyl N-({4-[(2-aminophenyl)carbamoyl]phenyl}methyl)carbamate] the “Excess over Bliss score (synergism)” value [1] was “synergistic”.

In the case of CC#C[C@]1(O)CC[C@H]2[C@@H]3CCC4=CC(=O)CCC4=C3[C@@H](c3ccc(N(C)C)cc3)C[C@@]21C [mifepristone, (1S,3aS,3bS,10R,11 aS)-10-[4-(dimethylamino)phenyl]-1-hydroxy-11a-methyl-1-(prop-1-yn-1-yl)-1H,2H,3H,3aH,3bH,4H,5H,7H,8H,9H,10H,11H,11aH-cyclopenta[a]phenanthren-7-one], the “Excess over Bliss score (synergism)” value [1] is reported as “synergistic”.

For “LNA ASO 3: LNA gapmer antisense oligonucleotide targeting SAMMSON, GTGTGAACTTGGCT (SEQ ID NO: 1), purchased from Qiagen (LNA gapmer from Qiagen, pattern not given here)”, the “knockdown and phenotypic effect compared to LNA ASO 11” value (SAMMSON) was “more efficient knockdown and phenotypic effect”, the “phosphorylated rpS6 (S235/S236) levels” value (rpS6 (S235/S236)) was “doesn't affect the phosphorylation status of rpS6” and the “expression pattern of differentially expressed genes compared to NTC ASO” value [2] was “reverses the expression pattern”. The “translation rate (incorporated puromycin signal)” value [3] was “translation inhibition”, the “phosphorylated 4E-BP1 (T37/T46) levels” value (4E-BP1 (T37/T46)) was “less phosphorylated 4E-BP1” and the weight loss ([4]; subcutaneous 10 mg/kg LNA ASO 3, PDX mice) was “no weight loss”. For the same compound, the tumor growth ([4]; subcutaneous 10 mg/kg, three times in first week, twice per week in second and third week, compared to NTC treated PDX mice) was “significant tumor growth inhibition”.
